Drawing on patent US10093678B2, “Azaspiro derivatives as TRPM8 antagonists” (RaQualia Pharma Inc., priority 2014, dated 2018), this text covers IC50 for 60 compounds.

The target in the test is T1, human TRPM8 (Homo sapiens, UniProt Q7Z2W7).
T1 construct: expressed in transfected cells; host or cells: HEK293
T1 sequence (Q7Z2W7 whole entry): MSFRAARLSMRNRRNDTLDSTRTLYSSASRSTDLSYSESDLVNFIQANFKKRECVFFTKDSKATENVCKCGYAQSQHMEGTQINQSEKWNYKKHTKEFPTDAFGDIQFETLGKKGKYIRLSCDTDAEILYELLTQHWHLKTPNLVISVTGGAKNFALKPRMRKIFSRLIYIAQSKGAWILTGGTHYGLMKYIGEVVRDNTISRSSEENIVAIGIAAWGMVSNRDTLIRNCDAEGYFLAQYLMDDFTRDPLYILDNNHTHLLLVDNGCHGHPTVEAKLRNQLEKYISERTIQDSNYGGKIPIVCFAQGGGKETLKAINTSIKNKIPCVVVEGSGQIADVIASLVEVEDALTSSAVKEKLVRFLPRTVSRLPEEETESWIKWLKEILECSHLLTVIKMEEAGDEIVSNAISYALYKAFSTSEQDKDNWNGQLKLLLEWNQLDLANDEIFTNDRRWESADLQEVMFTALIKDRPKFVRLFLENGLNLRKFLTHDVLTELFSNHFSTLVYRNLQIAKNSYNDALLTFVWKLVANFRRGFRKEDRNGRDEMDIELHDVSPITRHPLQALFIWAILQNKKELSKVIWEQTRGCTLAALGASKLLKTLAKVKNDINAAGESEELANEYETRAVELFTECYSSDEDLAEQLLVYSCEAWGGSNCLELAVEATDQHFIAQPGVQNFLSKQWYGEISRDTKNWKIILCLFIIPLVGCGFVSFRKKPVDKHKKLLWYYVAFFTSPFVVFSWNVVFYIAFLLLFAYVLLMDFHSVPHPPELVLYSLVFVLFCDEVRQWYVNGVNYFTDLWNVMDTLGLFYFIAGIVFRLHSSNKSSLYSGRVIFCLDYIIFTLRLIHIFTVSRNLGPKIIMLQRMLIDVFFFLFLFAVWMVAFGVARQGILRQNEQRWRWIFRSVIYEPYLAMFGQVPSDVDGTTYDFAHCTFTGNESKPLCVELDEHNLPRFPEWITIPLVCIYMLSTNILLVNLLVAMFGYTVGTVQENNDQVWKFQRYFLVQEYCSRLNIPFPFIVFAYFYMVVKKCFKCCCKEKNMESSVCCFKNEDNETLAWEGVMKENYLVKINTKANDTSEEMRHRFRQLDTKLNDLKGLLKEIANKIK
In words: Menthol-induced Ca2+ influx in HEK293 cells stably expressing human TRPM8. It is filed as cell-based. As to conditions: 30 microM menthol-induced Ca2+ influx, read-out: IC50 against TRPM8. As to the method: Measurement of the Menthol-Induced Ca^2+ Influx in HEK293 Cells Stably Expressing Human TRPM8
A cell-based Ca^2+ influx assay using HEK293 cells stably expressing human TRPM8 is used to identify the activity of compounds.
HEK293 cells stably expressing human TRPM8 are grown in T175 flasks at 37° C. in a 5% CO2 humidified incubator to about 80% confluence. Media composition consists of Dulbecco's Modified Eagle Medium (high glucose), 10% fetal calf serum (FCS), 100 units/mLPenicillin, 100 microg/mL Streptomycin and 600 microg/mL Geneticine. At 24 hours prior to assay, cells are seeded in poly-D-lysine coated 384-well plates (BD FALCON) at a density of 30,000 cells per well in culture medium and grown overnight in 5% CO2 at 37° C. On the assay day, growth media is removed and cells are loaded with 0.5 microM Fluo4-AM (Molecular Probes) and 0.005% Pluronic F-127 dissolved in assay buffer (Hank's balanced salt solution (HBSS), 19.4 mM HEPES pH7.4, 2.5 mM Probenecid) for 1 hour at room temperature. After washing with assay buffer, the cells are preincubated with various concentrations of the compounds for 5 min. The changes in intracellular calcium concentration by addition of 30 microM menthol are monitored by the cell imaging technology by Hamamatsu Photonics Functional Drug Screening System (FDSS).
The IC50 values for compounds of the present invention are determined from 11-point dose-response studies. Curves are generated using the average of duplicate wells for each data point. Finally, the IC50 values are calculated with the best-fit dose curve determined by XLfit (ID Business Solutions Ltd.).
As for `O=C(CN1C(=O)NC2(CCC(F)(F)CC2)C1=O)c1ccc(-n2cnc3ccccc32)cc1` [Example 5-7], the IC50 is under 10 nM. Under `Cc1nc2ccccc2n1-c1ccc(C(=O)CN2C(=O)NC3(CCC(F)(F)CC3)C2=O)cc1` [Example 5-8] stands under 100 nM; under `O=C(CN1C(=O)NC2(CCC(F)(F)CC2)C1=O)c1ccc(-n2cnc3cccnc32)cc1` [Example 5-9], under 10 nM; under `Cc1nc2cccnc2n1-c1ccc(C(=O)CN2C(=O)NC3(CCC(F)(F)CC3)C2=O)cc1` [Example 5-10], under 10 nM. Under `O=C(CN1C(=O)NC2(CCC(F)(F)CC2)C1=O)c1ccc(-n2cnc3ncccc32)cc1` [Example 5-11] stands under 100 nM; under `O=C(CN1C(=O)NC2(CCC(F)(F)CC2)C1=O)c1ccc(-n2cnc3ccccc32)nc1` [Example 5-12], under 100 nM. For the compound `Cc1nc2ccccc2n1-c1ccc(C(=O)CN2C(=O)NC3(CCCCCC3)C2=O)cc1` [Example 5-13], the IC50 is under 100 nM. The result for `Cc1nc2ccccc2n1-c1ccc(C(=O)CN2C(=O)NC3(CCC(F)(F)CC3)C2=O)cn1` [Example 5-14] reads under 10 nM. The result for `O=C(CN1C(=O)NC2(CCC(F)(F)CC2)C1=O)c1ccc(-n2c(CO)nc3ccccc32)cc1` [Example 5-15, 8,8-difluoro-3-(2-(4-(2-(hydroxymethyl)-1H-benzo[d]imidazol-1-yl)phenyl)-2-oxoethyl)-1,3-diazaspiro[4.5]decane-2,4-dione] reads under 100 nM; that for `NCc1nc2ccccc2n1-c1ccc(C(=O)CN2C(=O)NC3(CCC(F)(F)CC3)C2=O)cc1` [Example 5-16, 3-(2-(4-(2-(aminomethyl)-1H-benzo[d]imidazol-1-yl)phenyl)-2-oxoethyl)-8,8-difluoro-1,3-diazaspiro[4.5]decane-2,4-dione], under 500 nM.

With `O=C(CN1C(=O)NC2(CCC(F)(F)CC2)C1=O)c1ccc(Oc2ccccn2)cc1` [Example 5-17], the IC50 is under 100 nM. Under `O=C(CN1C(=O)NC2(CCCCC2)C1=O)c1ccc(Oc2ccccn2)cc1` [Example 5-18] stands under 100 nM; under `O=C(CN1C(=O)NC2(CCCCC2)C1=O)c1ccc(Oc2ccccc2)cc1` [Example 5-19], under 100 nM. On to `O=C(CN1C(=O)NC2(CCC(F)(F)CC2)C1=O)c1ccc(Oc2ncccn2)cc1` [Example 5-20], for which the IC50 was under 100 nM. Consider `O=C(CN1C(=O)NC2(CCC(F)(F)CC2)C1=O)c1ccc(Oc2ncccn2)cc1` [Example 5-21], for which the IC50 was under 500 nM.

As to `O=C(CN1C(=O)NC2(CCC(F)(F)CC2)C1=O)c1ccc(Oc2cccnn2)cc1` [Example 5-22], the IC50 was under 100 nM. The result for `O=C(CN1C(=O)NC2(CCC(F)(F)CC2)C1=O)c1ccc(Oc2ccccc2)nc1` [Example 5-23] reads under 500 nM; that for `O=C(CN1C(=O)NC2(CCCCC2)C1=O)c1ccc(Oc2ccccc2)nc1` [Example 5-24], under 500 nM; that for `Cc1ccncc1-c1ncc(C(=O)CN2C(=O)NC3(CCC(F)(F)CC3)C2=O)cc1Cl` [Example 5-25], under 100 nM. Under `Cc1ccnnc1-c1ccc(C(=O)CN2C(=O)NC3(CCCCCC3)C2=O)cc1` [Example 5-26] stands under 100 nM; under `Cc1ccc2nc(C)n(-c3ccc(C(=O)CN4C(=O)NC5(CCC(F)(F)CC5)C4=O)cc3)c2n1` [Example 5-27], under 10 nM. Under `Cc1ccc2nc(C)n(-c3ccc(C(=O)CN4C(=O)NC5(CCCCCC5)C4=O)cc3)c2n1` [Example 5-30] stands under 100 nM.

On to `Cc1nc2ccc(C(F)(F)F)nc2n1-c1ccc(C(=O)CN2C(=O)NC3(CCC(F)(F)CC3)C2=O)cc1` [Example 5-31], for which the IC50 was under 100 nM. `Cc1nc2cccnc2n1-c1ccc(C(=O)CN2C(=O)NC3(CCCCCC3)C2=O)cc1` [Example 5-32]: the IC50 is under 100 nM. The result for `Cc1nc2cccnc2n1-c1ccc(C(=O)CN2C(=O)NC3(CCCCC3)C2=O)cn1` [Example 5-33] reads under 100 nM; that for `O=C(CN1C(=O)NC2(CCC(F)(F)CC2)C1=O)c1ccc(Sc2ncccn2)cc1` [Example 5-39], under 100 nM; that for `O=C(CN1C(=O)NC2(CCCCC2)C1=O)c1ccc(Oc2cccnn2)cc1` [Example 5-40], under 500 nM. Consider `O=C(CN1C(=O)NC2(CCCCCC2)C1=O)c1ccc(Oc2cccnn2)cc1` [Example 5-41], for which the IC50 was under 100 nM. The result for `O=C(CN1C(=O)NC2(CCC(F)(F)CC2)C1=O)c1ccc(-c2ccnc3[nH]ncc23)cc1` [Example 6-1] reads under 10 nM; that for `O=C(CN1C(=O)NC2(CCC(F)(F)CC2)C1=O)c1ccc(-c2ncnc3ccccc23)cc1` [Example 6-2], under 10 nM. Under `N#Cc1nccnc1-c1ccc(C(=O)CN2C(=O)NC3(CCC(F)(F)CC3)C2=O)cc1` [Example 6-3] stands under 10 nM; under `O=C(CN1C(=O)NC2(CCC(F)(F)CC2)C1=O)c1ccc(-c2cncc3[nH]ncc23)cc1` [Example 6-4], under 10 nM. Under `O=C(CN1C(=O)NC2(CCC(F)(F)CC2)C1=O)c1ccc(-c2cncc3[nH]ccc23)cc1` [Example 6-5] stands under 10 nM; under `O=C(CN1C(=O)NC2(CCC(F)(F)CC2)C1=O)c1ccc(-c2nccnc2CO)cc1` [Example 6-6], under 10 nM; under `Cc1cnc(C)c(-c2ccc(C(=O)CN3C(=O)NC4(CCC(F)(F)CC4)C3=O)cc2)n1` [Example 6-7], under 10 nM.

As for `O=C(CN1C(=O)NC2(CCC(F)(F)CC2)C1=O)c1ccc(-c2ncnc3[nH]ccc23)cc1` [Example 6-8], the IC50 was under 10 nM. Consider `O=C(CN1C(=O)NC2(CCC(F)(F)CC2)C1=O)c1ccc(-c2cccnc2CO)cc1` [Example 6-9], for which the concentration for half-maximal inhibition (IC50) is under 100 nM. Under `O=C(CN1C(=O)NC2(CCC(F)(F)CC2)C1=O)c1ccc(-c2cnccc2CO)cc1` [Example 6-10] stands under 100 nM; under `Cc1nccnc1-c1ccc(C(=O)CN2C(=O)NC3(CCC(F)(F)CC3)C2=O)cc1` [Example 6-11], under 100 nM; under `Cc1ncsc1-c1ccc(C(=O)CN2C(=O)NC3(CCC(F)(F)CC3)C2=O)cc1` [Example 6-12], under 100 nM. Under `O=C(CN1C(=O)NC2(CCC(F)(F)CC2)C1=O)c1ccc(-c2ccnc3[nH]ccc23)cc1` [Example 6-13] stands under 100 nM.

On to `Cc1ccnnc1-c1ccc(C(=O)CN2C(=O)NC3(CCC(F)(F)CC3)C2=O)cc1` [Example 6-14], for which the IC50 is under 100 nM.

For `N#Cc1ncccc1-c1ccc(C(=O)CN2C(=O)NC3(CCC(F)(F)CC3)C2=O)cc1` [Example 6-15], the IC50 was under 100 nM. As to `N#Cc1ccncc1-c1ccc(C(=O)CN2C(=O)NC3(CCC(F)(F)CC3)C2=O)cc1` [Example 6-16], the IC50 is under 100 nM. The result for `O=C(CN1C(=O)NC2(CCC(F)(F)CC2)C1=O)c1ccc(-c2cccnc2OCCO)cc1` [Example 6-17] reads under 100 nM. The result for `O=C(CN1C(=O)NC2(CCC(F)(F)CC2)C1=O)c1ccc(-c2nncc3ccccc23)cc1` [Example 6-18] reads under 100 nM. On to `O=C(CN1C(=O)NC2(CCC(F)(F)CC2)C1=O)c1ccc(-c2ccccc2O)cc1` [Example 6-19], for which the IC50 is under 100 nM.

On to `O=C(CN1C(=O)NC2(CCC(F)(F)CC2)C1=O)c1ccc(-c2nccc3[nH]ncc23)cc1` [Example 6-20], for which the IC50 is under 100 nM. The result for `O=C(CN1C(=O)NC2(CCC(F)(F)CC2)C1=O)c1ccc(-c2cccc3nccn23)cc1` [Example 6-21] reads under 100 nM. The result for `O=C(CN1C(=O)NC2(CCC(F)(F)CC2)C1=O)c1ccc(-c2ncccc2Cl)cc1` [Example 6-22] reads under 100 nM; that for `O=C(CN1C(=O)NC2(CCC(F)(F)CC2)C1=O)c1ccc(-c2ncnc3[nH]ncc23)cc1` [Example 6-23], under 100 nM; that for `O=C(CN1C(=O)NC2(CCC(F)(F)CC2)C1=O)c1ccc(-c2nccc3[nH]ccc23)cc1` [Example 6-24], under 100 nM. Under `O=C(CN1C(=O)NC2(CCC(F)(F)CC2)C1=O)c1ccc(-c2nccc3ccccc23)cc1` [Example 6-25] stands under 100 nM.

`N#Cc1cccc(-c2ccc(C(=O)CN3C(=O)NC4(CCC(F)(F)CC4)C3=O)cc2)n1` [Example 6-26]: the IC50 is under 100 nM. Under `O=C(CN1C(=O)NC2(CCC(F)(F)CC2)C1=O)c1ccc(-c2ncccc2F)cc1` [Example 6-27] stands under 100 nM; under `Cc1cncc(-c2ccc(C(=O)CN3C(=O)NC4(CCC(F)(F)CC4)C3=O)cc2)n1` [Example 6-28], under 100 nM. Under `Cc1ccsc1-c1ccc(C(=O)CN2C(=O)NC3(CCC(F)(F)CC3)C2=O)cc1` [Example 6-29] stands under 100 nM. For the compound `O=C(CN1C(=O)NC2(CCC(F)(F)CC2)C1=O)c1ccc(-c2cccc3nccnc23)cc1` [Example 6-30], the IC50 is under 100 nM.

Consider `O=C(CN1C(=O)NC2(CCC(F)(F)CC2)C1=O)c1ccc(-c2nccc3occc23)cc1` [Example 6-31], for which the IC50 is under 100 nM. The result for `O=C(CN1C(=O)NC2(CCC(F)(F)CC2)C1=O)c1ccc(-c2n[nH]c3ccccc23)cc1` [Example 6-32] reads under 100 nM.
